{"source": "ChEMBL document CHEMBL3244093", "about": "“Synthesis and antiinflammatory activity of trisubstituted pyrimidines and triazines” (1978)", "data": [{"system": "Rattus norvegicus", "experiment": "Antiinflammatory activity in rat assessed as inhibition of carrageenan-induced foot edema at 100 mg/kg, po administered 1 hr before carrageenan challenge measured after 3 to 3.5 hrs relative to untreated control", "type": "functional", "units": {"inhibition in vivo at 100 mg/kg": "%"}, "values": [{"smiles": "Cc1ncc2c(n1)CCN(C)C2", "inhibition in vivo at 100 mg/kg": 45}, {"smiles": "CCOC(=O)Nc1nccc(-c2ccncc2)n1", "inhibition in vivo at 100 mg/kg": 31}, {"smiles": "CC(C)(C)C1CCc2nnc(-c3ccccc3)[n+]([O-])c2C1", "note": "(stereo unspecified)", "inhibition in vivo at 100 mg/kg": 15}, {"smiles": "c1ccc2c(c1)CCc1cncnc1-2", "inhibition in vivo at 100 mg/kg": 32}, {"smiles": "Cc1ncc(C)c(-c2ccccc2)n1", "inhibition in vivo at 100 mg/kg": 12}, {"smiles": "c1ncc2c(n1)CCCCCCCCCC2", "inhibition in vivo at 100 mg/kg": "< 5"}, {"smiles": "CC(=O)Nc1nccc(-c2ccncc2)n1", "inhibition in vivo at 100 mg/kg": 52}, {"smiles": "CC(C)(C)c1ccnc(N)n1", "inhibition in vivo at 100 mg/kg": 32}, {"smiles": "CC(C)(C)c1nc(N)ncc1-c1ccc(Cl)cc1", "inhibition in vivo at 100 mg/kg": 25}, {"smiles": "CC(C)(C)c1nc(-c2ccccc2)ncc1-c1ccccc1", "inhibition in vivo at 100 mg/kg": "< 5"}, {"smiles": "CC(C)(C)c1ccnc(NCc2ccccc2)n1", "inhibition in vivo at 100 mg/kg": 14}, {"smiles": "CCCCc1nnc2c(ccc3ccccc32)n1", "inhibition in vivo at 100 mg/kg": "< 5"}, {"smiles": "CC(C)(C)c1cnc(-c2ccccc2)nn1", "inhibition in vivo at 100 mg/kg": 38}, {"smiles": "CC(C)(C)c1nc(NN)ncc1-c1ccccc1", "inhibition in vivo at 100 mg/kg": "< 5"}, {"smiles": "CN1CCc2ncncc2C1", "inhibition in vivo at 100 mg/kg": 50}, {"smiles": "CC(C)(C)c1ccnc(Nc2ccccc2)n1", "inhibition in vivo at 100 mg/kg": 21}, {"smiles": "Nc1ncc2c(n1)-c1ccccc1CC2", "inhibition in vivo at 100 mg/kg": 32}, {"smiles": "Nc1ncc2c(n1)CCCCCCCCCC2", "inhibition in vivo at 100 mg/kg": "< 5"}, {"smiles": "CC(C)(C)c1c[n+]([O-])c(-c2ccccc2)nn1", "inhibition in vivo at 100 mg/kg": 35}, {"smiles": "CC(C)(C)Nc1nccc(C(C)(C)C)n1", "inhibition in vivo at 100 mg/kg": 26}, {"smiles": "CCOC(=O)Nc1ncc(-c2ccccc2)c(C(C)(C)C)n1", "inhibition in vivo at 100 mg/kg": 24}, {"smiles": "CC(C)(C)C1CCc2nncnc2C1", "note": "(stereo unspecified)", "inhibition in vivo at 100 mg/kg": 49}, {"smiles": "Cc1ncnnc1-c1ccccc1", "inhibition in vivo at 100 mg/kg": "< 5"}, {"smiles": "CC(C)(C)c1ccnc(Cl)n1", "inhibition in vivo at 100 mg/kg": "< 5"}, {"smiles": "NC(=O)Nc1nccc(-c2ccncc2)n1", "inhibition in vivo at 100 mg/kg": 12}, {"smiles": "CN1CCc2nc(N)ncc2C1", "inhibition in vivo at 100 mg/kg": "< 5"}, {"smiles": "Cc1cnc(N)nc1-c1ccccc1", "inhibition in vivo at 100 mg/kg": 34}, {"smiles": "Cc1ncc2c(n1)-c1ccccc1CC2", "inhibition in vivo at 100 mg/kg": "< 5"}, {"smiles": "Cc1nnc2c(n1)CC(C(C)(C)C)CC2", "note": "(stereo unspecified)", "inhibition in vivo at 100 mg/kg": "< 5"}, {"smiles": "Cc1ncc(-c2ccccc2)c(C(C)(C)C)n1", "inhibition in vivo at 100 mg/kg": 22}, {"smiles": "CNc1ncc(-c2ccccc2)c(C(C)(C)C)n1", "inhibition in vivo at 100 mg/kg": 37}, {"smiles": "CC(C)(C)c1nc(NC(N)=O)ncc1-c1ccccc1", "inhibition in vivo at 100 mg/kg": 14}, {"smiles": "c1ccc(-c2nnc3c(ccc4ccccc43)n2)cc1", "inhibition in vivo at 100 mg/kg": "< 5"}, {"smiles": "Cc1ncc2c(n1)-c1ccccc1CCC2", "inhibition in vivo at 100 mg/kg": "< 5"}, {"smiles": "CC(C)(C)C1CCc2nnc[n+]([O-])c2C1", "note": "(stereo unspecified)", "inhibition in vivo at 100 mg/kg": 36}, {"smiles": "COc1ccc(-c2cnc(C)nc2-c2ccc(OC)cc2)cc1", "inhibition in vivo at 100 mg/kg": "< 5"}, {"smiles": "CSc1nccc(C(C)(C)C)n1", "inhibition in vivo at 100 mg/kg": 35}, {"smiles": "Cc1ncc(C(C)(C)C)nn1", "inhibition in vivo at 100 mg/kg": 25}, {"smiles": "Nc1nccc(-c2ccccn2)n1", "inhibition in vivo at 100 mg/kg": 17}, {"smiles": "CNc1nccc(C(C)(C)C)n1", "inhibition in vivo at 100 mg/kg": 34}, {"smiles": "c1cc(-c2ccncn2)ccn1", "inhibition in vivo at 100 mg/kg": 45}, {"smiles": "CC(C)(C)c1nc(N)ncc1-c1cccc(C(F)(F)F)c1", "inhibition in vivo at 100 mg/kg": 8}, {"smiles": "Nc1ncc(-c2ccccc2)c(-c2ccncc2)n1", "inhibition in vivo at 100 mg/kg": 48}, {"smiles": "Cc1nnc2c([n+]1[O-])CC(C(C)(C)C)CC2", "note": "(stereo unspecified)", "inhibition in vivo at 100 mg/kg": 48}, {"smiles": "c1ccc2c(c1)CCCc1ncnnc1-2", "inhibition in vivo at 100 mg/kg": "< 5"}, {"smiles": "c1ccc(-c2nccc(-c3ccncc3)n2)cc1", "inhibition in vivo at 100 mg/kg": 42}, {"smiles": "CC(C)(C)c1ncncc1-c1ccccc1", "inhibition in vivo at 100 mg/kg": 48}, {"smiles": "Cc1nnc(C(C)(C)C)c[n+]1[O-]", "inhibition in vivo at 100 mg/kg": 22}, {"smiles": "Cc1cncnc1-c1ccccc1", "inhibition in vivo at 100 mg/kg": 48}, {"smiles": "Cc1ncc2c(n1)-c1ccccc1C2", "inhibition in vivo at 100 mg/kg": "< 5"}, {"smiles": "CC(C)(C)c1ccnc(NCCc2ccccc2)n1", "inhibition in vivo at 100 mg/kg": 10}, {"smiles": "CC(=O)N(C(C)=O)c1ncc(-c2ccccc2)c(C(C)(C)C)n1", "inhibition in vivo at 100 mg/kg": 22}, {"smiles": "Nc1nccc(-c2cccnc2)n1", "inhibition in vivo at 100 mg/kg": 32}, {"smiles": "Cc1nnc2c(ccc3ccccc32)n1", "inhibition in vivo at 100 mg/kg": "< 5"}, {"smiles": "CC(C)(C)c1nc(N)ncc1-c1ccccc1", "inhibition in vivo at 100 mg/kg": 46}, {"smiles": "CC(=O)Nc1ncc(-c2ccccc2)c(C(C)(C)C)n1", "inhibition in vivo at 100 mg/kg": 29}, {"smiles": "CC(C)(C)C1CCc2nc(N)ncc2C1", "note": "(stereo unspecified)", "inhibition in vivo at 100 mg/kg": 41}, {"smiles": "N#CNc1nccc(-c2ccncc2)n1", "inhibition in vivo at 100 mg/kg": "< 5"}, {"smiles": "Cc1ncc2c(n1)CCC(C(C)(C)C)C2", "note": "(stereo unspecified)", "inhibition in vivo at 100 mg/kg": "< 5"}, {"smiles": "CC(C)(C)c1nc(NC#N)ncc1-c1ccccc1", "inhibition in vivo at 100 mg/kg": "< 5"}, {"smiles": "Cc1cncnc1-c1ccncc1", "inhibition in vivo at 100 mg/kg": 50}, {"smiles": "Cc1ncc2c(n1)CCCCCCCCCC2", "inhibition in vivo at 100 mg/kg": "< 5"}, {"smiles": "CN(C)c1nccc(C(C)(C)C)n1", "inhibition in vivo at 100 mg/kg": 18}, {"smiles": "CC(C)(C)c1nc(NC(=O)CCCC(=O)O)ncc1-c1ccccc1", "inhibition in vivo at 100 mg/kg": 5}, {"smiles": "c1ccc2c(c1)ccc1ncnnc12", "inhibition in vivo at 100 mg/kg": "< 5"}, {"smiles": "CC(C)(C)c1ccnc(S)n1", "inhibition in vivo at 100 mg/kg": 22}, {"smiles": "Nc1nccc(-c2ccncc2)n1", "note": "[listing 1 of 2 here]", "inhibition in vivo at 100 mg/kg": 18}, {"smiles": "Cc1nc(-c2ccccc2)nnc1-c1ccccc1", "inhibition in vivo at 100 mg/kg": "< 5"}]}, {"system": "Rattus norvegicus", "experiment": "Antiinflammatory activity in po dosed rat assessed as inhibition of carrageenan-induced foot edema compound administered 1 hr before carrageenan challenge measured after 3 to 3.5 hrs relative to untreated control", "type": "functional", "units": {"ED50": "mg/kg"}, "values": [{"smiles": "Cc1c(-c2ccccc2)nnc[n+]1[O-]", "ED50": 64}, {"smiles": "Cc1ccc2c(-c3ccccc3)nc(=O)n(C(C)C)c2c1", "note": "[PROQUAZONE]", "ED50": 5.2}, {"smiles": "CNc1nccc(-c2ccncc2)n1", "ED50": 49}, {"smiles": "CN(C)CC(=O)Nc1ncc(-c2ccccc2)c(C(C)(C)C)n1", "ED50": 84}, {"smiles": "CC(C)(C)c1ccnc(O)n1", "ED50": 43}, {"smiles": "CC(C)(C)c1c[n+]([O-])cnn1", "ED50": 98}, {"smiles": "Cc1cnc(N)nc1-c1ccncc1", "ED50": 66}, {"smiles": "c1ccc(-c2cncnc2-c2ccncc2)cc1", "ED50": 95}, {"smiles": "CC(C)(C)C1CCc2ncncc2C1", "note": "(stereo unspecified)", "ED50": 58}, {"smiles": "Cc1nccc(-c2ccncc2)n1", "ED50": 47}, {"smiles": "Nc1nccc(-c2ccncc2)n1", "note": "[listing 2 of 2 here]", "ED50": 38}, {"smiles": "CCCCC1C(=O)N(c2ccccc2)N(c2ccccc2)C1=O", "note": "[PHENYLBUTAZONE]", "ED50": 25}, {"smiles": "COc1ccc(-c2cnc(N)nc2-c2ccc(OC)cc2)cc1", "ED50": 85}]}]}
